Reference: ChEMBL document CHEMBL1122559, “Inhibition of human dihydrofolate reductase by 4,6-diamino-1,2-dihydro-2,2-dimethyl-1-(substituted-phenyl)-s-triazine s. A quantitative structure-activity relationship analysis” (J Med Chem, 1984)

Molecular target: T1, Dihydrofolate reductase (Homo sapiens) (UniProt P00374)
T1 sequence (whole entry): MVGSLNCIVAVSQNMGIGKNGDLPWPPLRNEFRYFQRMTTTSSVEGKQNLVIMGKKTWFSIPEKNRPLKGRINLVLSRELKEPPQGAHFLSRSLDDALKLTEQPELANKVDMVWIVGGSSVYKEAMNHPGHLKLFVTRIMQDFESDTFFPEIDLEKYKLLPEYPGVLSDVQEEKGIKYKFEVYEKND
Description: Inhibitory activity against human lymphoblastoid cell (WIL2) dihydrofolate reductase (DHFR)

| SMILES | Log 1/Ki app |
| --- | --- |
| CCCOc1ccc(N2C(N)=NC(N)=NC2(C)C)cc1 | 5.57 |
| CC1(C)N=C(N)N=C(N)N1c1ccc(OCC(=O)N2CCOCC2)cc1 | 5.66 |
| CC1(C)N=C(N)N=C(N)N1c1ccc(C(F)(F)F)cc1 | 5.58 |
| CC1(C)N=C(N)N=C(N)N1c1ccc(C#N)cc1 | 3.69 |
| CC1(C)N=C(N)N=C(N)N1c1ccc(OCc2ccc(S(N)(=O)=O)cc2)cc1 | 7.21 |
| CC1(C)N=C(N)N=C(N)N1c1ccc(C#Cc2ccccc2)cc1 | 5.42 |
| Cc1ccc(N2C(N)=NC(N)=NC2(C)C)cc1 | 5.97 |
| CC1(C)N=C(N)N=C(N)N1c1ccc(N)cc1 | 4.65 |
| CC1(C)N=C(N)N=C(N)N1c1ccc(SCc2ccccc2)cc1 | 7.01 |
| CCCCc1ccc(N2C(N)=NC(N)=NC2(C)C)cc1 | 6.27 |
| CCOC(=O)c1ccc(N2C(N)=NC(N)=NC2(C)C)cc1 | 3.46 |
| CC1(C)N=C(N)N=C(N)N1c1ccc(SCc2ccc(Cl)cc2)cc1 | 6.97 |
| CC1(C)N=C(N)N=C(N)N1c1ccc(S(C)(=O)=O)cc1 | 4.08 |
| COc1ccc(N2C(N)=NC(N)=NC2(C)C)cc1 | 5.31 |
| CC1(C)N=C(N)N=C(N)N1c1ccc(OCCOc2ccc(N)cc2)cc1 | 6 |
| CC1(C)N=C(N)N=C(N)N1c1ccc(F)cc1 | 6.15 |
| Cc1cccc(SCc2ccc(N3C(N)=NC(N)=NC3(C)C)cc2)c1 | 7.22 |
| CC(C)(C)c1ccc(N2C(N)=NC(N)=NC2(C)C)cc1 | 5.66 |

| SMILES | Log 1/Ki app |
| --- | --- |
| CC1(C)N=C(N)N=C(N)N1c1ccc(CSc2ccccc2)cc1 | 7.33 |
| CC(=O)Nc1ccc(N2C(N)=NC(N)=NC2(C)C)cc1 | 4.23 |
| CCCCCCOc1ccc(N2C(N)=NC(N)=NC2(C)C)cc1 | 5.53 |
| CC1(C)N=C(N)N=C(N)N1c1ccc(O)cc1 | 4.57 |
| CC1(C)N=C(N)N=C(N)N1c1ccc(OCc2ccc(C(N)=O)cc2)cc1 | 7.23 |
| COC(=O)c1ccc(N2C(N)=NC(N)=NC2(C)C)cc1 | 3.85 |
| CCCCCCCCCc1ccc(N2C(N)=NC(N)=NC2(C)C)cc1 | 6.52 |
| CCCCCCCCCCCOc1ccc(N2C(N)=NC(N)=NC2(C)C)cc1 | 5.68 |
| CC1(C)N=C(N)N=C(N)N1c1ccc(OCc2ccccc2)cc1 | 6.93 |
| Cc1ccccc1SCc1ccc(N2C(N)=NC(N)=NC2(C)C)cc1 | 7.18 |
| CC1(C)N=C(N)N=C(N)N1c1ccc(I)cc1 | 5.51 |
| CC1(C)N=C(N)N=C(N)N1c1ccc(OCc2ccc(Cl)c(Cl)c2)cc1 | 6.46 |
| CCCCCCCCCCCCOc1ccc(N2C(N)=NC(N)=NC2(C)C)cc1 | 5.85 |
| CC1(C)N=C(N)N=C(N)N1c1ccc(S(N)(=O)=O)cc1 | 3.81 |
| CC(=O)c1ccc(N2C(N)=NC(N)=NC2(C)C)cc1 | 4.5 |
| CC1(C)N=C(N)N=C(N)N1c1ccc(Br)cc1 | 5.76 |
| CC1(C)N=C(N)N=C(N)N1c1ccc(OCc2ccc(CO)cc2)cc1 | 7.12 |
